Experimental data: publication PMC7118210 (Frontiers in Pharmacology, 2020)

Key:
[1] = Metabolites in rat liver microsomes (systems I-rat, II-rat); assay type: in vitro ADME, Sprague-Dawley rat
Method: Then, NADPH-B (10 μl) was added and incubated for 2 h. […] Then, UDPGA (50 μl) was added and incubated for 2 h. […] Then, UDPGA (50 μl) was added and incubated for 2 h. In addition, the naringenin solution (1 mM, 10 μl) was evaluated in rat systems I, II, and III as above.
(§1) The incubated solution (500 μl) of systems I-rat, II-rat, III-rat, I-human, and II-human were extracted with ethyl acetate (500 μl) for at least 3 min by vortexing and centrifuged for 10 min at 13,000 rpm and 4°C. The extraction process described above was performed twice and all supernatants were transferred into centrifuge tubes, dried with N2, and dissolved with methanol-water (1:1, v/v). All samples were injected into a UPLC/Q-TOF-MS system consisting of a Waters Acquity ultra performance liquid chromatography (UPLC) coupled with a Micromass micro™ quadrupole time-of-flight mass spectrometry (Q-TOF-MS) system (Waters Corp., Milford, MA, USA), equipped with an electrospray ionization source, and controlled by the MassLynx (v. 4.1) software. Separation was performed on a Waters Acquity UPLC BEH C18 column (50 mm × 2.1 mm, 1.7 μm) at 40°C. The mobile phase consisted of 0.1% formic acid (v/v) in water (A) and methanol (B) using a linear gradient of 95% to 60% A (0–25 min), 60% to 40% A (25–35 min), 40% to 10% A (35–40 min), 10% A (40–43 min), 10% to 95% A (43–44 min), and 95% A (44–45 min). The injection volume was 5 μl with flow rate of 0.2 ml min^-1. The Q-TOF-MS worked in a full scan mode (100–1,200 m/z), selection ion mode, and product ion mode, in negative ion mode, respectively. The conditions were as follows: capillary voltage 3,000 V, sample cone voltage 30 V, extraction cone voltage 2.0 V, source temperature 100°C, desolvation temperature 350°C, cone gas (N2) flow rate of 40 L/h, desolvation gas (N2) flow rate of 700 L/h, low collision energy 6.0 eV, and high collision energy 20–80 eV. Compounds were detected with accurate mass using leucine enkephalin for mass correction at 554.2615 (m/z) in negative ionization mode.

[2] = Metabolites in human liver microsomes (systems I-human, II-human); assay type: in vitro ADME
Method: Then, NADPH-B (10 μl) was added and the mixed solution incubated for 2 h. […] Next, UDPGA (50 μl) was added and the mixed solution incubated for 2 h. In addition, the naringenin solution (1 mM, 10 μl) was evaluated in human systems I and II as above.
as §1

| Compound | found in rat liver microsomes, incubation of naringenin (S) [1] | found in human liver microsomes, incubation of naringenin (S) [2] |
| --- | --- | --- |
| O=c1cc(-c2ccc(O)cc2)oc2cc(O)cc(O)c12 [M6, Apigenin] | + | + |
| COc1ccc([C@@H]2CC(=O)c3c(O)cc(O)cc3O2)cc1O [M8, Hesperetin] | + |  |
| O=C1C[C@@H](c2ccc(O)c(O)c2)Oc2cc(O)cc(O)c21 [M7, Eriodictyol] | + | + |
